Results reported in patent US20250090461A1, “CELL-WALL BINDING PROTEIN SPECIFICALLY TARGETING CUTIBACTERIUM ACNES” (MASSACHUSETTS INSTITUTE OF TECHNOLOGY, priority 2022, published 2025).

Experiments:
[1] = test system: Cutibacterium acnes; test: Minimum Inhibitory Concentration of benzoyl peroxide on C. acnes; assay type: cell-based; conditions: OTC product containing 10% BPO used; FIG. 4
Description: An OTC product containing 10% BPO was used in this experiment.
The advantage of SmartArrow is that it will deliver the active ingredients to where the bacteria reside. As a result, a much lower dosage of bioactive can be loaded in SmartArrow to achieve high killing of the bacteria compared to untargeted liposomes. As little as 0.002% BPO can achieve total killing of C. acnes (FIG. 4). Considering the BPO concentrations found in the retail market ranges from 2.5%-10%, which is ˜1000-fold higher than what is needed to kill the bacteria, it is not surprising to find most users of these retail products routinely suffer several side effects such as dry peeling skin. By using the SmartArrow approach, we can conservatively load 0.02% BPO into a liposome, which is 100× less than the retail products, to achieve total bacterial killing and reducing the side effects to a minimum.

[2] = test system: Cutibacterium acnes; test: Confocal microscopy binding of EGFP-tagged lysin to C. acnes; conditions: 2.5 mg/ml; four C. acnes strains (6919, 11828, 11827, HC038-PAI); FIG. 1
Protocol: (§1) To check the binding spectrum of the engineered lysin SmartNovaC, 2.5 mg/ml of SmartNovaC was applied against four C. acnes strains, Enterococcus faecalis strain OG1 RF, Staphylococcus epidermidis strain PCI1200 and Pseudomonas aeruginosa strain PA14. Since SmartNovaC was cloned in a plasmid that would co-express the EGFP tag, the fluorescent lysin can be visualized using confocal microscopy.
To further examine whether SmartNovaC is the only lysin that binds specifically to C. acnes, the binding of NovaC and another lysin DukeC2Rap that were synthesized with EGFP co-expressed were tested. DukeC2Rap lysin was obtained as CBD of Doucette lysin targeting Propionibacterium freudenreichii species, which is from the same genus as C. acnes. The nucleotide and amino acid sequences of the DukeC2Rap are provided below.
NovaC and DukeC2Rap at concentrations of 2.5 mg/ml and 1.3 mg/ml, respectively, were tested for binding against two C. acnes strains.

[3] = test system: Enterococcus faecalis strain OG1 RF; test: Confocal microscopy binding of EGFP-tagged lysin to E. faecalis; conditions: 2.5 mg/ml; FIG. 1 E1-3
Protocol: as §1

[4] = test system: Pseudomonas aeruginosa strain PA14; test: Confocal microscopy binding of EGFP-tagged lysin to P. aeruginosa; conditions: 2.5 mg/ml; FIG. 1 F1-3
Protocol: as §1

[5] = test system: Staphylococcus epidermidis strain PCI1200; test: Confocal microscopy binding of EGFP-tagged lysin to S. epidermidis; conditions: 2.5 mg/ml; FIG. 1 G1-3
Protocol: as §1

Molecule	BPO concentration achieving total killing of C. acnes (MIC) [1]	binding to C. acnes (green fluorescence) [2]	binding to E. faecalis OG1RF [3]	binding to P. aeruginosa PA14 [4]	binding to S. epidermidis [5]
O=C(OOC(=O)c1ccccc1)c1ccccc1 [BPO, benzoyl peroxide]	0.002%				
SmartNovaC (GSVNKLHHDVGVVQVQNGDLSKRVDALSWV)		specific binding	could not bind	could not bind	could not bind
